Legend:
Type in all cases: cell-based, human
A-549 = test: SRB colorimetric assay of cell growth and viability, A-549; details: A-549, 48 hours exposure
SK-MEL-28 = test: SRB colorimetric assay of cell growth and viability, SK-MEL-28; details: 48 hours exposure, SRB
HT-29 = test: SRB colorimetric assay of cell growth and viability, HT-29; details: HT-29, 48 hours exposure
LoVo = test: SRB colorimetric assay of cell growth and viability, LoVo; details: LOVO, 48 hours exposure
LoVo-Dox = test: SRB colorimetric assay of cell growth and viability, LoVo-Dox; details: LOVO-DOX, 48 hours exposure
Procedure, shortened: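 Here, cells grow drug-free for 18 h, then receive sample dilutions from 10 down to 10^−8 μg/mL for 48 h at 37° C. Protein-bound SRB is solubilized in Tris and quantified at 490 nm.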

DU-145 = test: SRB colorimetric assay of cell growth and viability, DU-145; details: 48 hours exposure, SRB
LNCaP = test: SRB colorimetric assay of cell growth and viability, LNCaP; details: 48 hours exposure, SRB
SK-BR-3 = test: SRB colorimetric assay of cell growth and viability, SK-BR-3; details: 48 hours exposure, SRB
IGROV-1 = test: SRB colorimetric assay of cell growth and viability, IGROV-1; details: 48 hours exposure, SRB
IGROV-ET = test: SRB colorimetric assay of cell growth and viability, IGROV-ET; details: 48 hours exposure, SRB
HeLa = test: SRB colorimetric assay of cell growth and viability, HeLa; details: HELA, 48 hours exposure
HeLa-APL = test: SRB colorimetric assay of cell growth and viability, HeLa-APL; details: HELA-APL, 48 hours exposure
K-562 = test: SRB colorimetric assay of cell growth and viability, K-562; details: K-562, 48 hours exposure
PANC-1 = test: SRB colorimetric assay of cell growth and viability, PANC-1; details: PANC-1, 48 hours exposure

Q: `C/C=C1\NC(=O)[C@H](Cc2ccccc2)NC(=O)[C@@H](C(C)C)NC(=O)[C@@H]([C@@H](C)CC)NC(=O)[C@H](NC(=O)[C@H](NC(=O)[C@H](CCCNC(=O)CCCC[C@@H]2SC[C@@H]3NC(=O)N[C@@H]32)NC(=O)[C@H]2CCCN2C(=O)[C@H](NC(=O)[C@@H](NC(=O)[C@@H](NC(=O)[C@H](NC(=O)CCCC(C)C)C(C)C)[C@@H](C)O)C(C)C)C(C)C)[C@@H](C)CC)[C@@H](C)OC(=O)[C@H](C(C)C)NC1=O` [Compound 99, [Orn(Biot)^8]-Kahalalide F] was tested. Which “TGI A-549” value (A-549) did it give?
A: The value was 2.05E−06 Molar.

Q: What about the GI50 (A-549; read-out: GI50 A-549) of the same compound?
A: Its GI50 is 886 nM.

Q: And the CC50 (A-549; read-out: LC50 A-549)?
A: The CC50 was 4760 nM.

Q: What about the GI50 (SK-MEL-28) of the same compound?
A: The GI50 was 839 nM.

Q: What about the “TGI MEL-28” value (SK-MEL-28) of the same compound?
A: The value was 1.73E−06 Molar.

Q: And the CC50 (SK-MEL-28; read-out: LC50 MEL-28)?
A: Its CC50 is 3540 nM.

Q: And the “TGI HT-29” value (HT-29)?
A: Its value is 2.41E−07 Molar.

Q: What about the GI50 (HT-29; read-out: GI50 HT-29) of the same compound?
A: Its GI50 is 124 nM.

Q: And the CC50 (HT-29; read-out: LC50 HT-29)?
A: The CC50 was 467 nM.

Q: And the GI50 (LoVo)?
A: Its GI50 is 129 nM.

Q: And the “TGI LOVO” value (LoVo)?
A: Its value is 2.53E−07 Molar.

Q: And the CC50 (LoVo; read-out: LC50 LOVO)?
A: Its CC50 is 495 nM.

Q: And the GI50 (LoVo-Dox)?
A: Its GI50 is 139 nM.

Q: What about the “TGI LOVO-DOX” value (LoVo-Dox) of the same compound?
A: The value was 3.10E−07 Molar.

Q: What about the CC50 (LoVo-Dox; read-out: LC50 LOVO-DOX) of the same compound?
A: Its CC50 is 3930 nM.

Q: And the GI50 (DU-145)?
A: Its GI50 is 757 nM.

Q: And the LC50 (concentration causing 50% net cell kill) (DU-145)?
A: Its LC50 (concentration causing 50% net cell kill) is 3260 nM.

Q: What about the “TGI DU-145” value (DU-145) of the same compound?
A: The value was 1.57E−06 Molar.

Q: And the “TGI LN-caP” value (LNCaP)?
A: The value was 1.99E−06 Molar.

Q: And the GI50 (LNCaP; read-out: GI50 LN-caP)?
A: The GI50 was 1020 nM.

Q: And the CC50 (LNCaP; read-out: LC50 LN-caP)?
A: Its CC50 is 3890 nM.

Q: What about the GI50 (SK-BR-3) of the same compound?
A: The GI50 was 140 nM.

Q: And the LC50 (SK-BR-3)?
A: Its LC50 is 575 nM.

Q: What about the “TGI SK-BR-3” value (SK-BR-3) of the same compound?
A: Its value is 2.84E−07 Molar.

Q: And the GI50 (IGROV-1)?
A: The GI50 was 268 nM.

Q: What about the LC50 (concentration causing 50% net cell killing) (IGROV-1) of the same compound?
A: Its LC50 (concentration causing 50% net cell killing) is 2690 nM.

Q: What about the “TGI IGROV” value (IGROV-1) of the same compound?
A: The value was 8.98E−07 Molar.

Q: And the GI50 (IGROV-ET)?
A: Its GI50 is 874 nM.

Q: What about the “TGI IGROV-ET” value (IGROV-ET) of the same compound?
A: The value was 1.88E−06 Molar.

Q: What about the CC50 (IGROV-ET; read-out: LC50 IGROV-ET) of the same compound?
A: Its CC50 is 4040 nM.

Q: And the GI50 (HeLa)?
A: Its GI50 is 329 nM.

Q: And the “TGI HELA” value (HeLa)?
A: The value was 1.19E−06 Molar.

Q: What about the CC50 (HeLa; read-out: LC50 HELA) of the same compound?
A: Its CC50 is 3510 nM.

Q: What about the GI50 (HeLa-APL) of the same compound?
A: The GI50 was 951 nM.

Q: And the “TGI HELA-APL” value (HeLa-APL)?
A: Its value is 2.10E−06 Molar.

Q: What about the CC50 (HeLa-APL; read-out: LC50 HELA-APL) of the same compound?
A: The CC50 was 4650 nM.

Q: And the GI50 (K-562)?
A: The GI50 was 3300 nM.

Q: What about the “TGI K-562” value (K-562) of the same compound?
A: Its value is 5.87E−06 Molar.

Q: And the CC50 (K-562; read-out: LC50 K-562)?
A: Its CC50 is 5870 nM.

Q: What about the GI50 (PANC-1) of the same compound?
A: The GI50 was 1500 nM.

Q: What about the “TGI PANC-1” value (PANC-1) of the same compound?
A: The value was 3.50E−06 Molar.

Q: And the CC50 (PANC-1; read-out: LC50 PANC-1)?
A: The CC50 was 5870 nM.
